# Experimental data from PMC7722752, “First-in-human Phase 1 open label study of the BET inhibitor ODM-207 in patients with selected solid tumours” (British Journal of Cancer, 2020).
# Read-outs that look alike come from different tables or passages of the source.
# How the values were obtained:
# platelet count = assay: Phase 1 study: platelet count as pharmacodynamic biomarker; details: in vivo
# Source text: Platelet count was chosen as a pharmacodynamic biomarker based on the observed robust correlation between BET inhibitor exposure and thrombocytopaenia in preclinical and clinical studies.[13],[14]
# [1] = system: patients with selected solid tumours
# Source text: The study design contained two parts: (1) dose escalation in patients with advanced solid tumours with an innovative single dose accelerated titration procedure in the first cohort (1A), (2) evaluation of food effect on bioavailability (1B). The single-dose accelerated titration procedure in the first cohort involved comparison of measured pharmacokinetic parameters in the first cohort of patients against preclinical models to evaluate whether exposure was within the target range. If the measured exposure was outside the target range (below or above), the protocol allowed for dose adjustment. Dose escalation was performed using a traditional 3 + 3 schedule. […] The relevant national authorities provided regulatory approval and local institutional review boards approved the protocol. All study procedures were conducted in accordance with the Declaration of Helsinki and good clinical practice. All patients provided written informed consent.
# The starting dose was chosen as it was reasonably expected to be both pharmacologically active and safe and tolerable. The target exposure for the starting dose was estimated from exposures observed in pre-clinical anti-tumour activity and safety studies. The estimated human dose required was predicted by both human equivalent dose calculations and physiologically-based pharmacokinetic modelling. […] Treatment was taken in the ambulatory setting, except for hospital admissions required for pre-specified study-related procedures.
# (§1) Response was assessed using RECIST 1.1 for patients with advanced solid tumours,[20] Prostate Cancer Working Group 3 criteria (PCWG3) for castrate-resistant prostate cancer[21] and Lugano criteria for non-Hodgkin lymphoma.[22]
# Safety analyses included all patients who received any doses of treatment. Efficacy evaluation was performed on all patients who received two or more cycles of treatment (≥8 weeks). Data points were excluded from relevant pharmacokinetic and platelet count analyses if samples were taken when the patient was on treatment interruption or within 3 days after resumption of treatment. […] Pre-dose total exposure of <3500 ng/mL was not expected to have significant BET inhibition effect and a level of ≥5000 ng/mL was expected to confer BET inhibition.
# [2] = Phase 1 study: plasma pharmacokinetics and food effect; format: in vivo, human; details: for metabolite/parent ratio based in AUC(0-t): main metabolite = demethylation product
# Source text: All patients provided written informed consent.
# selected solid tumours = assay: Phase 1 study: anti-tumour activity (RECIST 1.1, PCWG3, Lugano); format: in vivo, human
# Method: as §1
# Efficacy evaluation was performed on all patients who received two or more cycles of treatment (≥8 weeks).
# [3] = system: non-BET family bromodomains; details: preclinical; cited from earlier work
# [4] = system: breast cancer and leukaemia and prostate cancer xenograft models; design: method as in earlier work; details: preclinical; cited from earlier work
# BET = system: BET; design: method as in earlier work; details: preclinical; cited from earlier work
# [5] = cohort 1A-1 0.6 mg/kg (50 mg) (n = 3)
# [6] = cohort 1A-2 1.3 mg/kg (100 mg) (n = 7)
smiles,measurement,setting,value
COc1cc2c(cc1-c1c(C)noc1C)cc(C)c(=O)n2Cc1ccccn1 [ODM-207],correlation between plasma exposure and changes in platelet count over time,platelet count,strong correlation
same,recovery of platelet count upon treatment interruption,platelet count,Prompt recovery
same,Related AE: Asthenia,"[1]; GRADE 1, Total (n = 35)",3 (8.6) n (%)
same,Related AE: Decreased appetite,"[1]; GRADE 1, Total (n = 35)",12 (34) n (%)
same,Related AE: Diarrhoea,"[1]; GRADE 1, Total (n = 35)",9 (26) n (%)
same,Related AE: Dysgeusia,"[1]; GRADE 1, Total (n = 35)",4 (11) n (%)
same,Related AE: Fatigue,"[1]; GRADE 1, Total (n = 35)",9 (26) n (%)
same,Related AE: Headache,"[1]; GRADE 1, Total (n = 35)",7 (20) n (%)
same,Related AE: Nausea,"[1]; GRADE 1, Total (n = 35)",13 (37) n (%)
same,Related AE: Thrombocytopaenia,"[1]; GRADE 1, Total (n = 35)",15 (43) n (%)
same,Related AE: Vomiting,"[1]; GRADE 1, Total (n = 35)",7 (20) n (%)
same,Related AE: Weight loss,"[1]; GRADE 1, Total (n = 35)",4 (11) n (%)
same,Related AE: Asthenia,"[1]; GRADE 2, Total (n = 35)",3 (8.6) n (%)
same,Related AE: Decreased appetite,"[1]; GRADE 2, Total (n = 35)",8 (23) n (%)
same,Related AE: Diarrhoea,"[1]; GRADE 2, Total (n = 35)",5 (14) n (%)
same,Related AE: Dysgeusia,"[1]; GRADE 2, Total (n = 35)",3 (8.6) n (%)
same,Related AE: Fatigue,"[1]; GRADE 2, Total (n = 35)",6 (17) n (%)
same,Related AE: Headache,"[1]; GRADE 2, Total (n = 35)",3 (8.6) n (%)
same,Related AE: Nausea,"[1]; GRADE 2, Total (n = 35)",4 (11) n (%)
same,Related AE: Thrombocytopaenia,"[1]; GRADE 2, Total (n = 35)",8 (23) n (%)
same,Related AE: Vomiting,"[1]; GRADE 2, Total (n = 35)",3 (8.6) n (%)
same,Related AE: Weight loss,"[1]; GRADE 2, Total (n = 35)",1 (2.9) n (%)
same,Related AE: Fatigue,"[1]; GRADE 3, Total (n = 35)",2 (5.7) n (%)
same,Related AE: Nausea,"[1]; GRADE 3, Total (n = 35)",3 (8.6) n (%)
same,Related AE: Thrombocytopaenia,"[1]; GRADE 3, Total (n = 35)",4 (11) n (%)
same,Related AE: Weight loss,"[1]; GRADE 3, Total (n = 35)",1 (2.9) n (%)
same,Related AE: Thrombocytopaenia,"[1]; GRADE 4, Total (n = 35)",1 (2.9) n (%)
same,AEs leading to dose reduction,[1]; Total (n = 35),4 (11) n (%)
same,AEs leading to dosing interruption,[1]; Total (n = 35),19 (54) n (%)
same,DLTs,[1]; Total (n = 35),1 (2.9) n (%)
same,Grade ≥ 3 AEs,[1]; Total (n = 35),19 (54) n (%)
same,Related SAEs,[1]; Total (n = 35),3 (8.6) n (%)
same,SAEs,[1]; Total (n = 35),14 (40) n (%)
same,Common AE: nausea,"[1]; any grade, n = 35",66%
same,AEs leading to dosing interruption,[1]; [5],2 (67) n (%)
same,AEs leading to study discontinuation,[1]; [5],1 (33) n (%)
same,AEs leading to dosing interruption,[1]; [6],4 (57) n (%)
same,DLTs,[1]; [6],1 (14) n (%)
same,Grade ≥ 3 AEs,[1]; [6],3 (43) n (%)
same,SAEs,"[1]; cohort 1A-2 1.3 mg/kg (100 mg) (n = 7), oral once daily",2 (29) n (%)
same,AEs leading to dosing interruption,[1]; cohort 1A-3 1.5 mg/kg (n = 5),2 (40) n (%)
same,AEs leading to study discontinuation,[1]; cohort 1A-3 1.5 mg/kg (n = 5),2 (40) n (%)
same,Grade ≥ 3 AEs,[1]; cohort 1A-3 1.5 mg/kg (n = 5),2 (40) n (%)
same,SAEs,[1]; cohort 1A-3 1.5 mg/kg (n = 5),2 (40) n (%)
same,AEs leading to dose reduction,[1]; cohort 1A-4 2 mg/kg (n = 6),2 (33) n (%)
same,AEs leading to dosing interruption,[1]; cohort 1A-4 2 mg/kg (n = 6),5 (83) n (%)
same,AEs leading to study discontinuation,[1]; cohort 1A-4 2 mg/kg (n = 6),1 (17) n (%)
same,Grade ≥ 3 AEs,[1]; cohort 1A-4 2 mg/kg (n = 6),4 (67) n (%)
same,Related SAEs,[1]; cohort 1A-4 2 mg/kg (n = 6),2 (33) n (%)
same,SAEs,[1]; cohort 1A-4 2 mg/kg (n = 6),3 (50) n (%)
same,AEs leading to dose reduction,[1]; cohort 1B-1 1.1 mg/kg (n = 10),1 (10) n (%)
same,AEs leading to dosing interruption,[1]; cohort 1B-1 1.1 mg/kg (n = 10),4 (40) n (%)
same,AEs leading to study discontinuation,[1]; cohort 1B-1 1.1 mg/kg (n = 10),3 (30) n (%)
same,Grade ≥ 3 AEs,[1]; cohort 1B-1 1.1 mg/kg (n = 10),6 (60) n (%)
same,SAEs,[1]; cohort 1B-1 1.1 mg/kg (n = 10),3 (30) n (%)
same,AEs leading to dose reduction,[1]; cohort 1B-2 1.4 mg/kg (n = 4),1 (25) n (%)
same,AEs leading to dosing interruption,[1]; cohort 1B-2 1.4 mg/kg (n = 4),2 (50) n (%)
same,AEs leading to study discontinuation,[1]; cohort 1B-2 1.4 mg/kg (n = 4),2 (50) n (%)
same,Grade ≥ 3 AEs,[1]; cohort 1B-2 1.4 mg/kg (n = 4),4 (100) n (%)
same,Related SAEs,[1]; cohort 1B-2 1.4 mg/kg (n = 4),1 (25) n (%)
same,SAEs,[1]; cohort 1B-2 1.4 mg/kg (n = 4),4 (100) n (%)
same,highest studied dose achieved,[1]; due to cumulative toxicity beyond the DLT treatment window,2 mg/kg
same,Common AE: anorexia,[1]; n = 35,49%
same,Common AE: diarrhoea,[1]; n = 35,40%
same,Common AE: fatigue,[1]; n = 35,43%
same,Common AE: headache,[1]; n = 35,37%
same,Common AE: vomiting,[1]; n = 35,40%
same,Common AE: weight loss,[1]; n = 35,23%
same,deaths on study,[1]; n = 35,"five deaths on study, all of which were considered not related to ODM-207"
same,treatment-related grade ≥3 adverse event: fatigue,[1]; n = 35,5.7%
same,treatment-related grade ≥3 adverse event: nausea,[1]; n = 35,8.6%
same,treatment-related grade ≥3 adverse event: thrombocytopaenia,[1]; n = 35,14.3%
same,Treatment discontinuation due to AEs,[1]; of 35 treated patients,5 (14%) patients
same,dose-limiting toxicity observed,"[1]; one patient, 100 mg (1.9 mg/kg), cohort 1A-2",intolerable grade 3 fatigue
same,maximum tolerated dose (MTD),"[1]; oral once daily, 28-day cycle, based upon observed adverse events beyond the DLT period",2 mg/kg
same,patients who experienced a treatment-related AE,"[1]; overall, n = 35",31 (89%) patients
same,metabolite/parent ratio based in AUC(0-t),[2]; day 1,0.1–0.2
same,metabolite/parent ratio based in AUC(0-t),[2]; day 15,0.1–0.5
same,exposure versus dose,[2]; dose escalation 0.6–2.0 mg/kg,dose proportional exposure
same,Plasma exposure (AUC0-24) under fed condition versus fasting condition,"[2]; food effect cohort, single dose, light breakfast vs overnight fasting",1.5 fold
same,increase of mean AUC(0-t) between day 1 and day 15 of dosing,"[2]; n = 28, 95% CI 2.9, 3.8",3.4 fold
same,absorption and elimination (plasma pharmacokinetics),[2]; oral,slow absorption and elimination
same,non-CR/non-PD (non-measurable disease) as best response,selected solid tumours; 21 evaluable patients,6 (29%) patients
same,progressive disease (PD) as best response,selected solid tumours; 21 evaluable patients,9 (43%) patients
same,stable disease (SD) as best response,selected solid tumours; 21 evaluable patients,29%
same,"partial or complete response (PR, CR)","selected solid tumours; 21 evaluable patients (≥ 8 weeks of treatment), RECIST",None had a partial or complete response
same,patients with NMC with SD as best response,"selected solid tumours; NUT midline carcinoma, four patients",One out of four
same,correlation between progression-free survival and increased exposure,selected solid tumours; in vivo,no correlation
same,median (range) duration of SD,selected solid tumours; in vivo,16.3 (8.0–23.0) weeks
same,median progression-free survival,selected solid tumours; in vivo,2.2 months
same,"progression-free survival, range",selected solid tumours; in vivo,0.5–9.7 months
same,Treatment discontinuation due to disease progression,selected solid tumours; of 35 treated patients,28 (80%) patients
same,decline in PSA below baseline level,selected solid tumours; prostate cancer patients,None of the prostate cancer patients showed decline in PSA below baseline level
same,cross-reactivity with non-BET family bromodomains,[3],minimal cross-reactivity
same,tumour growth inhibition,[4],preclinical evidence of tumour growth inhibition
same,BET inhibition potency,BET,highly potent
